{"source": "paper PMC9683716", "about": "(Science Advances, 2022)", "key": {"[1]": {"tested_on": "Drosophila flies", "assay": "Climbing assay", "type": "in vivo, Drosophila melanogaster"}, "[2]": {"biological_target": "T1, recombinant Drosophila Naam (Drosophila melanogaster, UniProt Q9VDU7)", "T1 sequence (Q9VDU7 1-357)": "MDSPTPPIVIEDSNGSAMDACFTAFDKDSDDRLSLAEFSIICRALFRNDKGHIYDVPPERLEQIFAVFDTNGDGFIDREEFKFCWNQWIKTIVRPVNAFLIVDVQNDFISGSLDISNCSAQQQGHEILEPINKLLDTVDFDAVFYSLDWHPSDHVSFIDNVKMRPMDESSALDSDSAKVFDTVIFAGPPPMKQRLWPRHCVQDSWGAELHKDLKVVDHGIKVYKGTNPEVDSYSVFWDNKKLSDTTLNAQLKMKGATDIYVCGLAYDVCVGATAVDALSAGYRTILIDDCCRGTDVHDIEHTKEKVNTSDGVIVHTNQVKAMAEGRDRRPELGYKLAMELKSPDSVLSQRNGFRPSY", "assay": "Naam enzyme activity and inhibition assay", "type": "biochemical"}, "[3]": {"tested_on": "C. elegans N2 Bristol strain", "assay": "Egg-laying assay", "type": "in vivo, Caenorhabditis elegans", "conditions": "wild-type nematodes, high concentrations"}, "[4]": {"biological_target": "T2, recombinant Naam A265E mutant (Drosophila melanogaster, UniProt Q9VDU7, A265E)", "T2 sequence (Q9VDU7 1-357 A265E)": "T1 sequence (Q9VDU7 1-357) with A265E"}, "[5]": {"biological_target": "T3, recombinant Naam T294E mutant (Drosophila melanogaster, UniProt Q9VDU7, T294E)", "T3 sequence (Q9VDU7 1-357 T294E)": "T1 sequence (Q9VDU7 1-357) with T294E", "type": "biochemical"}, "[6]": {"biological_target": "Myzus persicae (aphid) Naam", "assay": "Naam inhibition assay, aphid Naam", "type": "biochemical"}, "[7]": {"biological_target": "Nilaparvata lugens (planthopper) Naam", "assay": "Naam inhibition assay, planthopper Naam", "type": "biochemical"}, "[8]": {"biological_target": "T4, Aedes albopictus (mosquito) Naam (Aedes albopictus, UniProt A0ABM2A4C4)", "T4 sequence (A0ABM2A4C4 1-377)": "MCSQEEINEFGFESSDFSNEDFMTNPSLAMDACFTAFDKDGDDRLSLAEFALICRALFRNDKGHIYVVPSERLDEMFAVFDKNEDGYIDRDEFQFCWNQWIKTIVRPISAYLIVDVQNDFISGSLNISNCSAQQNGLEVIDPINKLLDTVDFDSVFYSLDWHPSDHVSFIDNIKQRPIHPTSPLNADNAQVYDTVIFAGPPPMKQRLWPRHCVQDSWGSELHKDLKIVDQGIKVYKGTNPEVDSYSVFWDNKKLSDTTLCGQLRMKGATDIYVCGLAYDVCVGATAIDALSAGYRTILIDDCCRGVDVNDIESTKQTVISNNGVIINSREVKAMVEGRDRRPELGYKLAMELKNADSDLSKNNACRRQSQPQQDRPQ", "assay": "Naam inhibition assay, mosquito Naam", "type": "biochemical"}, "[9]": {"biological_target": "T5, Apis mellifera (honey bee) Naam2 (Apis mellifera, UniProt A0A7M7MP11)", "T5 sequence (A0A7M7MP11 1-346)": "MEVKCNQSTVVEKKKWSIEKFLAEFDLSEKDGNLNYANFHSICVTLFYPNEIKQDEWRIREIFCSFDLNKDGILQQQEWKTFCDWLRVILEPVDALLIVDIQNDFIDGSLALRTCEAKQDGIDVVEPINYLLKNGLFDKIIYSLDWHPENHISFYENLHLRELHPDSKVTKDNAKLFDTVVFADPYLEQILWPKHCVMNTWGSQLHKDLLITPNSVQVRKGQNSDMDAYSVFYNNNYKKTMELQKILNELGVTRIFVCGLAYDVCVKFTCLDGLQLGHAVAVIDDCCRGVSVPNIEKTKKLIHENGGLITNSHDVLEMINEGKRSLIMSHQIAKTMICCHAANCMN", "assay": "Naam enzyme activity and inhibition assay, honey bee Naam2", "type": "biochemical"}, "[10]": {"biological_target": "T6, C. elegans PNC-1 (Caenorhabditis elegans, UniProt Q9N426)", "T6 sequence (Q9N426 25-335)": "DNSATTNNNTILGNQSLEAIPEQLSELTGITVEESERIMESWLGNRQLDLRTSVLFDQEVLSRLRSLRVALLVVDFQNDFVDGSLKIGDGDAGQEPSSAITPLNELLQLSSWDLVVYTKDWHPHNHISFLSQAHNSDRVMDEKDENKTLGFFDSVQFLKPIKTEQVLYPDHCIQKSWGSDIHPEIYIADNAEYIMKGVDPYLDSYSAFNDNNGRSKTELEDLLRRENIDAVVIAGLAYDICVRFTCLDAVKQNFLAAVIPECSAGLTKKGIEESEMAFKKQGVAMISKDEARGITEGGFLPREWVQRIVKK", "assay": "Naam inhibition assay, C. elegans PNC-1", "type": "biochemical"}, "[11]": {"biological_target": "T7, C. elegans PNC-2 (Caenorhabditis elegans, UniProt Q7YTI0)", "T7 sequence (Q7YTI0 1-316)": "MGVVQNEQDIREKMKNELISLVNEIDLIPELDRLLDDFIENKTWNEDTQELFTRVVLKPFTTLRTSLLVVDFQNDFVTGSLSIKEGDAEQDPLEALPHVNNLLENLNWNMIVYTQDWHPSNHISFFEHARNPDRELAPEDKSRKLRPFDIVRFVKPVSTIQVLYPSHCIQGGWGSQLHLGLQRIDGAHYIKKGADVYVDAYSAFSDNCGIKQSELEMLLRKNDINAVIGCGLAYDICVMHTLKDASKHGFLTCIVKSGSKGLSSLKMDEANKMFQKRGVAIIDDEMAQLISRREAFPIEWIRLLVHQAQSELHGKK", "assay": "Naam inhibition assay, C. elegans PNC-2", "type": "biochemical"}, "[12]": {"biological_target": "B. burgdorferi PncA (Borreliella burgdorferi, UniProt G1FKW2)", "assay": "Naam inhibition assay, B. burgdorferi PncA", "type": "biochemical, Borrelia burgdorferi"}, "[13]": {"tested_on": "mice", "conditions": "cited from earlier work"}, "[14]": {"tested_on": "Nan-Iav TRPV channels", "conditions": "cited from earlier work"}}, "note": "Residue numbers refer to the chain shown, from its start. Several values for one entry are separate records, joined by “and”; a condition that tells them apart may be missing. Identical values can stand only once."}
{"compound": "O=Cc1cccnc1", "note": "[NAH, Nicotinaldehyde]", "values": [{"measurement": "effect on flies in climbing assays", "setting": "[1]; even at 5 mM", "result": "no significant effect"}, {"measurement": "Ki", "setting": "[2]", "result": 330, "unit": "nM"}, {"measurement": "number of eggs laid", "setting": "[3]", "result": "significantly reduced the number of eggs laid"}]}
{"compound": "NC(=O)c1cccnc1", "note": "[NAM, nicotinamide]", "values": [{"measurement": "effect on climbing scores", "setting": "[1]; 2 or 5 mM", "result": "no significant effect"}, {"measurement": "effect on climbing scores", "setting": "[1]; feeding high concentrations (> 10 mM)", "result": "reduced the climbing scores"}, {"measurement": "turnover number relative to wild-type Naam", "setting": "[4]; A265E substitution", "result": "~ 22%"}]}
{"compound": "NC(=O)c1cnccc1C(F)(F)F", "note": "[TFNA-AM, 4-trifluoromethylnicotinamide]", "values": [{"measurement": "reduction of climbing ability compared with FL", "setting": "[1]; 2 mM, after 1 hour of feeding, score at 30 s", "result": "more effective than FL"}, {"measurement": "difference to FL in reduction of climbing ability", "setting": "[1]; 2 mM, after 3 hours of feeding, score at 30 s", "result": "not significant"}, {"measurement": "effect on climbing scores in combination with NAM", "setting": "[1]; 10 or 20 μM combined with NAM", "result": "significantly synergized the toxicity of NAM"}, {"measurement": "negative geotaxis (climbing index at 30 s)", "setting": "[1]; control flies, 2 mM for 3 hours", "result": "< 15", "unit": "%"}, {"measurement": "climbing index (at 30 s)", "setting": "[1]; in vivo", "result": "68% and 52%"}, {"measurement": "concentration that suppressed negative geotaxis", "setting": "[1]; in vivo", "result": "≥ 20", "unit": "µM"}, {"measurement": "effect of Naam knockdown on climbing index", "setting": "[1]; in vivo", "result": "had no effect"}, {"measurement": "effect on negative geotaxis", "setting": "[1]; in vivo", "result": "virtually abolished"}, {"measurement": "effect on negative geotaxis of Naam^A265E flies", "setting": "[1]; in vivo", "result": "did not impair negative geotaxis"}, {"measurement": "sensitivity of heterozygous control flies in climbing assays", "setting": "[1]; in vivo", "result": "as sensitive as wild-type flies"}, {"measurement": "effect on climbing scores, alone", "setting": "[1]; low doses (10 or 20 μM) alone", "result": "negligible effects"}, {"measurement": "Ki", "setting": "[2]", "result": 720, "unit": "nM"}, {"measurement": "enzymatic activity of Naam in the presence of compound", "setting": "[2]; 100 μM", "result": "markedly reduced the enzyme activity"}, {"measurement": "resistance based on increase in Ki vs wild-type Naam", "setting": "[5]", "result": 7.5, "unit": "fold"}, {"measurement": "Ki", "setting": "[6]", "result": 80, "unit": "nM"}, {"measurement": "Ki", "setting": "[7]", "result": 600, "unit": "nM"}, {"measurement": "Ki", "setting": "[8]", "result": 1090, "unit": "nM"}, {"measurement": "Ki", "setting": "[9]", "result": 16.7, "unit": "µM"}, {"measurement": "fold less sensitive than the honey bee Naam1", "setting": "[9]; Ki Naam2 vs Naam1", "result": 21, "unit": "fold"}, {"measurement": "fold less sensitive than the aphid Naam", "setting": "[9]; Ki Naam2 vs aphid Naam", "result": 209, "unit": "fold"}, {"measurement": "sensitivity of PNC-1", "setting": "[10]", "result": "neither PNC-1 nor PNC-2 was sensitive"}, {"measurement": "sensitivity of PNC-2", "setting": "[11]", "result": "neither PNC-1 nor PNC-2 was sensitive"}, {"measurement": "Ki", "setting": "[12]", "result": 2370, "unit": "nM"}, {"measurement": "resistance based on increase in Ki vs wild-type Naam", "setting": "[4]", "result": 415.7, "unit": "fold"}, {"measurement": "LD50 (median lethal dose)", "setting": "[13]", "result": "> 2000", "unit": "mg/kg"}, {"measurement": "activation of heterologously expressed Nan-Iav TRPV channels", "setting": "[14]", "result": "neither FL nor its metabolite TFNA-AM activates"}]}
{"compound": "O=Cc1cnccc1C(F)(F)F", "note": "[TNAH, 4-(trifluoromethyl)nicotinaldehyde]", "values": [{"measurement": "number of eggs laid", "setting": "[3]", "result": "significantly reduced the number of eggs laid"}]}
{"compound": "CC1=NNC(=O)N(/N=C/c2cccnc2)C1", "note": "[pymetrozine]", "values": [{"measurement": "sensitivity of Naam knockdown flies", "setting": "[1]; in vivo", "result": "still sensitive"}]}
{"compound": "CC(=O)N1C(=O)N(NCc2cccnc2)Cc2cc(C(F)(C(F)(F)F)C(F)(F)F)ccc21", "note": "[pyrifluquinazon]", "values": [{"measurement": "sensitivity of Naam knockdown flies", "setting": "[1]; in vivo", "result": "still sensitive"}]}
